US20220073521A1, “PYRIMIDINE AND FIVE-MEMBERED NITROGEN HETEROCYCLE DERIVATIVE, PREPARATION METHOD THEREFOR, AND MEDICAL USES THEREOF” (Tuojie Biotech (Shanghai) Co., Ltd., priority 2018, published 2022)
Like-named read-outs stand apart in the source and are kept apart here.

Columns and labels:
[1] = target: T1, SHP2 wild-type phosphatase (recombinantly expressed full-length SHP2, aa 1-593) (Homo sapiens, UniProt Q06124); experiment: In vitro activity on SHP2 wild-type phosphatase (DiFMUP fluorescence); conditions: wild-type full-length SHP2, activated polypeptide IRS1 0.5 nM, DiFMUP 30 μM;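 note: enzyme preincubated at room temperature, then DiFMUP reaction run at room temperature and halted with SDS, potency derived from a logistic curve fit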
T1 sequence (Q06124 1-593): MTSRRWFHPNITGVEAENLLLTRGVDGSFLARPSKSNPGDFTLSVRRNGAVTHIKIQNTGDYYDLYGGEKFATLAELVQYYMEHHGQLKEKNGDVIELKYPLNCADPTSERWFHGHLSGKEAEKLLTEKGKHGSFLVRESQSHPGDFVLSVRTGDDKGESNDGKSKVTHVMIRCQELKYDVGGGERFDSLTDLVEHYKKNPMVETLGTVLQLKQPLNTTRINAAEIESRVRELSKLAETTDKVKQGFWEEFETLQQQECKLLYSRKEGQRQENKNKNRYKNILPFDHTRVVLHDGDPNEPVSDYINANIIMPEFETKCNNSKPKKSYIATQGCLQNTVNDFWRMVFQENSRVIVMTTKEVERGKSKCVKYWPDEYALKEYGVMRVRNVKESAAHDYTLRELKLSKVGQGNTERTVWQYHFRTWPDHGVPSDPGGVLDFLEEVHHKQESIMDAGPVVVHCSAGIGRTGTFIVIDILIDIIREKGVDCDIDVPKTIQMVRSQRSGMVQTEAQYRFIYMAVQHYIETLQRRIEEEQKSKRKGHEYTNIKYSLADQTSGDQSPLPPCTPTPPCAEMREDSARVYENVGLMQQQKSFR
Experimental: 0.2 nM recombinantly expressed full-length SHP2 (aa 1-593), 0.5 nM activated polypeptide IRS1 with double phosphorylation sites (sequence: H2N-LN(pY)IDLDLY(dPEG8)LST(pY)ASINFQK-amide) and a series of concentrations of the test compound (final concentrations were 1 μM, 0.3 μM, 0.1 μM, 0.03 μM, 0.01 μM, 0.003 μM, 0.001 μM, 0.0003 μM, 0.0001 μM, 0.00003 μM) were added to the phosphatase reaction solution (60 mM HEPES, pH 7.5 0.005% Brij-35, 75 mM NaCl, 75 mM KCl, 1 mM EDTA, 5 mM DTT). The reaction solution was shaked (350 rpm) at room temperature for 30 minutes. The reaction substrate DiFMUP with a final concentration of 30 μM was added, and the reaction solution was reacted at room temperature for 30 minutes. The phosphatase reaction was stopped by adding 5 μL of stop solution (60 mM HEPES, pH 7.5, 0.2% SDS). Ex358 nm/Em455 fluorescence value was read on the fluorescence plate reader MD SpectraMax.
The IC50 value of the compound was calculated using the four-parameter logit method. In the following formula, x represents the logarithmic form of the compound concentration, and F(x) represents the effect value (the inhibition rate of cell proliferation under the given concentration condition): F(x)=((A−D)/(1+((x/C)^B)))+D. A, B, C and D are four parameters. Different concentrations correspond to different inhibition rates, based on which an inverse curve was plotted, and the IC50 of the inhibitor was calculated from the curve. The IC50 of the compound was calculated with Primer premier 6.0.

p-ERK in KYSE-520 cells = experiment: Determination of p-ERK in KYSE-520 cells (HTRF); assay type: cell-based
Experimental: KYSE-520 cells (Nanjing Cobioer Biosciences CO., Ltd.) in the logarithmic growth phase were inoculated (30,000 cells/well) in 1640 medium containing 10% of FBS, and adhered in a 96-well plate overnight (5% CO2, 37° C.). […] The cell culture was stopped with cell lysate. The level of phosphorylated ERK in KYSE-520 cells was determined by a method based on homogeneous time-resolved fluorescence HTRF (Cisbio, 64ERKPEG). The fluorescence values (Ex337 nm/Em625/665 nm) were read on the compatible HTRF reader (MD SpectraMax).

KYSE-520 cells = experiment: KYSE-520 cell proliferation experiment (CellTiter-Glo, 7 days); assay type: cell-based
Experimental: The treated cell plate was incubated at 37° C., 5% CO2 for 7 days. CellTiter-Glo (Promega, G7573) was used to determine the number of viable cells in each well of the treated plate. 100 μL of the detection reagent was added to each well, and the plate was incubated at room temperature for 10 minutes. Then, the […] in each well was measured with Envision plate reader (PerkinElmer). […] The IC50 value was further calculated as the compound concentration required for 50% proliferation inhibition in the best-fit curve with […].

Structure (SMILES)	IC50 [1] [nM]	IC50 (p-ERK in KYSE-520 cells; Homo sapiens, KYSE-520, 2 h) [nM]	IC50 (p-ERK in KYSE-520 cells; 2 hours) [nM]	IC50 (KYSE-520 cells; Homo sapiens) [nM]	IC50 (KYSE-520 cells) [nM]
Cc1nc(N2CCC3(CC2)CO[C@@H](C)[C@H]3N)n2ccnc2c1-c1cccc(Cl)c1Cl (single isomer, unassigned) [The atropisomer with a RT of 2.716 minutes in Examples 3 and 4]	61.7				
COc1nccc(-c2c(C)nc(N3CCC4(CCC[C@H]4N)CC3)n3ccnc23)c1Cl [Example 6, (R)-8-(8-(3-Chloro-2-methoxypyridin-4-yl)-7-methylimidazo[1,2-c]pyrimidin-5-yl)-8-azaspiro[4.5]decan-1-amine]	26.9				
Cc1nc(N2CCC3(CCC[C@H]3N)CC2)n2ccnc2c1-c1ccc(OC(F)F)cc1Cl [Example 7, (R)-8-(8-(2-Chloro-4-(difluoromethoxy)phenyl)-7-methylimidazo[1,2-c]pyrimidin-5-yl)-8-azaspiro[4.5]decan-1-amine]	42.2				
Cc1nc(N2CCC3(CC2)CO[C@@H](C)[C@H]3N)n2ccnc2c1-c1c(F)cccc1Cl [Example 10, (3S,4S)-8-(8-(2-Chloro-6-fluorophenyl)-7-methylimidazo[1,2-c]pyrimidin-5-yl)-3-methyl-2-oxa-8-azaspiro[4.5]decan-4-amine]	111				
Cc1nc(N2CCC3(CC2)CO[C@@H](C)[C@H]3N)n2ccnc2c1-c1c(F)ccc(Cl)c1Cl [Example 11, (3S,4S)-8-(8-(2,3-Dichloro-6-fluorophenyl)-7-methylimidazo[1,2-c]pyrimidin-5-yl)-3-methyl-2-oxa-8-azaspiro[4.5]decan-4-amine]	41.1				
Cc1nc(N2CCC3(CC2)CO[C@@H](C)[C@H]3N)n2ccnc2c1-c1cccc(Cl)c1Br [Example 12, (3S,4S)-8-(8-(2-Bromo-3-chlorophenyl)-7-methylimidazo[1,2-c]pyrimidin-5-yl)-3-methyl-2-oxa-8-azaspiro[4.5]decan-4-amine]		59.2		346	
C[C@@H]1OCC2(CCN(c3nc(C(F)(F)F)c(Sc4cccnc4C(F)(F)F)c4nccn34)CC2)[C@@H]1N [Example 13, (3S,4S)-3-Methyl-8-(7-(trifluoromethyl)-8-((2-(trifluoromethyl)pyridin-3-yl)thio)imidazo[1,2-c]pyrimidin-5-yl)-2-oxa-8-azaspiro[4.5]decan-4-amine]	818				
CC1(N)CCN(c2ncc(Sc3ccnc(F)c3Cl)c3nccn23)CC1 [Example 14, 1-(8-((3-Chloro-2-fluoropyridin-4-yl)thio)imidazo[1,2-c]pyrimidin-5-yl)-4-methylpiperidin-4-amine]	232				
N[C@@H]1CCCC12CCN(c1ncc(Sc3ccnc(F)c3Cl)c3nccn13)CC2 [Example 15, (R)-8-(8-((3-Chloro-2-fluoropyridin-4-yl)thio)imidazo[1,2-c]pyrimidin-5-yl)-8-azaspiro[4.5]decan-1-amine]	5.6	197		312	
N[C@@H]1CCCC12CCN(c1ncc(Sc3cccnc3C(F)(F)F)c3nccn13)CC2 [Example 16, (R)-8-(8-((2-(Trifluoromethyl)pyridin-3-yl)thio)imidazo[1,2-c]pyrimidin-5-yl)-8-azaspiro[4.5]decan-1-amine]	6.8	166		548	
C[C@@H]1OCC2(CCN(c3ncc(Sc4ccncc4C(F)(F)F)c4nccn34)CC2)[C@@H]1N [Example 18, (3S,4S)-3-Methyl-8-(8-((3-(trifluoromethyl)pyridin-4-yl)thio)imidazo[1,2-c]pyrimidin-5-yl)-2-oxa-8-azaspiro[4.5]decan-4-amine]	8.6				
CC1(N)CCN(c2ncc(Sc3ccnc(F)c3Cl)c3nncn23)CC1 [Example 19, 1-(8-((3-Chloro-2-fluoropyridin-4-yl)thio)-[1,2,4]triazolo[4,3-c]pyrimidin-5-yl)-4-methylpiperidin-4-amine]	555				
CNc1ncccc1Sc1cnc(N2CCC3(CC2)Cc2ncccc2[C@H]3N)n2ccnc12 [Example 38, (S)-1′-(8-((2-(Methylamino)pyridin-3-yl)thio)imidazo[1,2-c]pyrimidin-5-yl)-5,7-dihydrospiro[cyclopenta[b]pyridine-6,4′-piperidin]-5-amine]	10.9				
Cc1nc(N2CCC3(CC2)CO[C@@H](C)[C@H]3N)c(CO)nc1-c1cccc(Cl)c1Cl [RMC4550, reference compound]			34.6		201

Continued, in another order:

IC50 [1] [nM]	IC50 (p-ERK in KYSE-520 cells; Homo sapiens, KYSE-520, 2 h) [nM]	IC50 (p-ERK in KYSE-520 cells; 2 hours) [nM]	Structure (SMILES)	IC50 (KYSE-520 cells; Homo sapiens) [nM]	IC50 (KYSE-520 cells) [nM]
2.9			Cc1nc(N2CCC3(CCC[C@H]3N)CC2)n2ccnc2c1-c1ccnc(Cl)c1Cl [Example 5, (R)-8-(8-(2,3-Dichloropyridin-4-yl)-7-methylimidazo[1,2-c]pyrimidin-5-yl)-8-azaspiro[4.5]decan-1-amine]		
5	370		Cc1nc(N2CCC3(CC2)Cc2ccccc2[C@H]3N)n2ccnc2c1-c1cccc(Cl)c1Cl [Example 8, (S)-1′-(8-(2,3-Dichlorophenyl)-7-methylimidazo[1,2-c]pyrimidin-5-yl)-1,3-dihydrospiro[indene-2,4′-piperidin]-1-amine]	151	
2	85.9		Nc1nc(N2CCC3(CCC[C@H]3N)CC2)n2ccnc2c1-c1cccc(Cl)c1Cl [Example 20, (R)-8-(7-Amino-8-(2,3-dichlorophenyl)imidazo[1,2-c]pyrimidin-5-yl)-8-azaspiro[4.5]decan-1-amine]	178	
3.8	26.6		C[C@@H]1OCC2(CCN(c3nc(N)c(-c4cccc(Cl)c4Cl)c4nccn34)CC2)[C@@H]1N [Example 21, (3S,4S)-8-(7-Amino-8-(2,3-dichlorophenyl)imidazo[1,2-c]pyrimidin-5-yl)-3-methyl-2-oxa-8-azaspiro[4.5]decan-4-amine]	111	
2.1	24.5		Nc1nc(N2CCC3(CCC[C@H]3N)CC2)n2ccnc2c1Sc1ccnc(F)c1Cl [Example 22, (R)-8-(7-Amino-8-((3-chloro-2-fluoropyridin-4-yl)thio)imidazo[1,2-c]pyrimidin-5-yl)-8-azaspiro[4.5]decan-1-amine]	102	
2.3	23.2		Nc1nc(N2CCC3(CCC[C@H]3N)CC2)n2ccnc2c1Sc1cccnc1C(F)(F)F [Example 23, (R)-8-(7-Amino-8-((2-(trifluoromethyl)pyridin-3-yl)thio)imidazo[1,2-c]pyrimidin-5-yl)-8-azaspiro[4.5]decan-1-amine]	51.6	
5.2	29.1		Cc1nccc(Sc2c(N)nc(N3CCC4(CC3)CO[C@@H](C)[C@H]4N)n3ccnc23)c1Cl [Example 25, (3S,4S)-8-(7-Amino-8-((3-chloro-2-methylpyridin-4-yl)thio)imidazo[1,2-c]pyrimidin-5-yl)-3-methyl-2-oxa-8-azaspiro[4.5]decan-4-amine]		
2.7	11.6		C[C@@H]1OCC2(CCN(c3nc(N)c(Sc4ccnc(F)c4Cl)c4nccn34)CC2)[C@@H]1N [Example 26, (3S,4S)-8-(7-Amino-8-((3-chloro-2-fluoropyridin-4-yl)thio)imidazo[1,2-c]pyrimidin-5-yl)-3-methyl-2-oxa-8-azaspiro[4.5]decan-4-amine]	62	
1.3			Nc1nccc(Sc2c(N)nc(N3CCC4(CC3)Cc3ccccc3[C@H]4N)n3ccnc23)c1Cl [Example 29, (S)-1′-(7-Amino-8-((2-amino-3-chloropyridin-4-yl)thio)imidazo[1,2-c]pyrimidin-5-yl)-1,3-dihydrospiro[indene-2,4′-piperidin]-1-amine]	14	
1.2			Cc1nc(N2CCC3(CC2)Cc2ncccc2[C@H]3N)n2ccnc2c1-c1cccc(Cl)c1Cl [Example 33, (S)-1′-(8-(2,3-Dichlorophenyl)-7-methylimidazo[1,2-c]pyrimidin-5-yl)-5,7-dihydrospiro[cyclopenta[b]pyridine-6,4′-piperidin]-5-amine]		
1.5			COc1nccc(Sc2cnc(N3CCC4(CC3)Cc3ncccc3[C@H]4N)n3ccnc23)c1Cl [Example 35, (S)-1′-(8-((3-Chloro-2-methoxypyridin-4-yl)thio)imidazo[1,2-c]pyrimidin-5-yl)-5,7-dihydrospiro[cyclopenta[b]pyridine-6,4′-piperidin]-5-amine]		
